Experimental data: patent EP1490080B1, “medical use of anthocyanins extracted from black rice” (Forbes Medi-Tech Inc., priority 2002, dated 2003)

What was measured:
[1] = test system: LPS-activated mouse macrophage cell RAW264.7; experiment: Inhibition of nitric oxide (nitrite, Griess reagent) in LPS-activated macrophage cells; format: cell-based; conditions: mean±SD, 1µg/ml LPS 24 hr
Experimental: Mouse macrophage cell RAW 264.7 (ATCC) was cultured in DMEM medium supplemented with 10% fetal bovine serum and antibiotics (100U/ml of penicillin and […]) at 37°C under 5% CO2, Cell was plated at a density of 2×10^5 cells/well into 96-well plates. After overnight growth when cells adhered to the bottom of well, various amount of the black rice extract in PBS and 1µg/ml bacterial lipopolysaccharide (LPS, Escheridchia coli, serotype 0111:B4) were added for another 24 hr. Medium was aliquot (100µl) to another 96-well plate where 100µl of Greiss reagent (1% sulfanilamide in 5% phosphoric acid and 0.1 % naphthylethylenediamine dihydrocholide in water, 1:1 v/v) was then added. Absorbance at 540nm was determined with ELISA plate reader. The concentration of nitrite was measured in according to standard curve obtained from the same procedure. The inhibition of nitric oxide was calculated according to the following equation: %Inhibition = (Abspositive -Abssample)/(Abspositive -Absnegative) × 100 [formula] of which, Abspositive, Absnegative, Abssample represent absorbance of cultural media with LPS, without LPS and sample with LPS.
Large amount of nitric oxide expression was made possible by using mouse macrophage cell line RAW264.7 co-incubated with bacterial LPS. The measurement of nitric oxide was indirectly measured by its metabolite nitrite in the supernatant of cell cultural media by Griess reagent.

[2] = test system: supercoiled DNA; experiment: Peroxyl radical (AAPH) induced supercoiled DNA scission, agarose gel electrophoresis; format: biochemical
Description: The effects of the anthocyanin composition in preventing DNA oxidation induced by oxidative radicals such as the peroxyl radical and hydroxyl radicals (site specific and non-site specific) were investigated. […] A similar effect was seen by the addition of cyanidin-3-glucoside and peonidin-3-glucoside in combination at various ratios Figure 11).
(§1) Both peroxyl radical and hydroxyl radical were applied in this test to evaluate the effect of black rice extract of the present invention in preventing DNA scission by 0.7% agarose gel electrophoresis with 0.5µg/ml ethidium bromide using TAE buffer (40mM Tris-acetate, 2mM EDTA, pH8.5). DNA bands were visualized by ultraviolet bench top transilluminator (UVP Inc., Upland, CA) and densities of bands were analyzed by LabWork software (UVP Inc., Upland, CA). The inhibition of DNA nicking was calculated as following equation: %Inh = (Dnative -Dsample)/(Dnative -Doxidative) × 100 [formula]
(§2) Dnative, Doxidative. Dsample represented the density of DNA without AAPH, DNA with AAPH and DNA with AAPH and test sample, respectively.

[3] = test system: supercoiled DNA; experiment: DNA nicking induced by non-site specific hydroxyl radical, agarose gel electrophoresis; format: biochemical
Experimental: (§3) In this hydroxyl radical model, the hydroxyl radical was generated by ascorbic acid mediated Fenton reaction.
as §1, §2
(§4) In the present study, we adapted the concept of both non-site specific and site-specific hydroxyl radical and applied these to the DNA scission assays (Figures 10 and 11). It is evident that hydroxyl radical, no matter site-specific or non-site specific broke the integrity of supercoiled DNA strand (lane 2 of Figure 10).

[4] = test system: supercoiled DNA; experiment: DNA nicking induced by site-specific hydroxyl radical, agarose gel electrophoresis; format: biochemical
Experimental: as §3, §1, §2, §4

Compound	Inhibition percentage of nitric oxide ([1]; 1µM) [%]	Inhibition percentage of nitric oxide ([1]; 10µM) [%]	Inhibition percentage of nitric oxide ([1]; 100µM) [%]	protection on the DNA strand scission ([2]; 1µg/ml) [%]	protection on the DNA strand scission ([2]; 5µg/ml) [%]	Inhibition percentage, Non-site specific ([3]; 0.17 µg/ml) [%]	Inhibition percentage, Non-site specific ([3]; 1.7 µg/ml) [%]	%Inh ([2]; 10µg/ml) [%]	recovery of peroxyl radical damage to the supercoiled DNA strand ([2]; Figure 10)	Inhibition percentage, Site specific ([4]; 0.17 µg/ml) [%]	Inhibition percentage, Site specific ([4]; 1.7 µg/ml) [%]	inhibition at 1 µM ([1]; Mus musculus, RAW264.7, 1µM, read-out: Inhibition percentage of nitric oxide) [%]	inhibition at 10 µM ([1]; Mus musculus, RAW264.7, 10µM, read-out: Inhibition percentage of nitric oxide) [%]	inhibition at 100 µM ([1]; Mus musculus, RAW264.7, 100µM, read-out: Inhibition percentage of nitric oxide) [%]
COc1cc(-c2[o+]c3cc(O)cc(O)c3cc2O[C@@H]2O[C@H](CO)[C@@H](O)[C@H](O)[C@H]2O)ccc1O [Peonidin-3-glucoside, peonidin-3-O-glucoside]	14.4±0.6	22.3±3.7	35.0±2.5	11.4	44.1									
Cc1c(C)c2c(c(C)c1O)CCC(C)(C(=O)O)O2 (stereo not shown) [Trolox]						44.0	80.8	100	partial recovery	25.7	61.0			
OC[C@H]1O[C@@H](Oc2cc3c(O)cc(O)cc3[o+]c2-c2ccc(O)c(O)c2)[C@H](O)[C@@H](O)[C@@H]1O [Cyanidin-3-glucoside, cyanidin-3-O-glucoside]				11.5	45.3							12.7 ± 2.7	23.1 ± 0.9	72.9 ± 4.8
